Measured values taken from patent US9206200B2, “N-linked lactam M1 receptor positive allosteric mogulators” (Merck Sharp & Dohme Corp., priority 2011, dated 2015).
pEC50: −log10 of the molar value. Where two headings read alike, the source gives them in different places.

Target: T1, acetylcholine muscarinic M1 receptor (Homo sapiens, UniProt P11229)
T1 construct: expressed in transfected cells; host or cells: CHOnfat cells (CHO cells with an NFAT reporter) expressing hM1, kept under Geneticin selection
T1 sequence (P11229 1-460): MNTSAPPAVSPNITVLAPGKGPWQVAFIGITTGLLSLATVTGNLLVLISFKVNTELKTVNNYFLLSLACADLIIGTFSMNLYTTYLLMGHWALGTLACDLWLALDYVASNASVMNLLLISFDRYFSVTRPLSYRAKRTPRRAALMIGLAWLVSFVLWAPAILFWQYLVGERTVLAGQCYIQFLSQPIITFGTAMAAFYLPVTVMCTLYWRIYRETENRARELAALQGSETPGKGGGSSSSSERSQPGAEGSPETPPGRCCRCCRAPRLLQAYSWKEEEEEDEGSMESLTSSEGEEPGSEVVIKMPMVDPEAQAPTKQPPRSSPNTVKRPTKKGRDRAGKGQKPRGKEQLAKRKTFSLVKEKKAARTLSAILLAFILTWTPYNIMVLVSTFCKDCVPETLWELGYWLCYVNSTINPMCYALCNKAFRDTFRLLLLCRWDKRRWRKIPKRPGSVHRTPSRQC
Assay: muscarinic FLIPR assay: intracellular calcium in CHOnfat/hM1 cells, potentiation of EC20 acetylcholine
Assay type: cell-based
Conditions: EC20 acetylcholine (3 nM final)
Description: The assay studies the effect of one or several concentrations of test compounds on basal or acetylcholine-stimulated Ca^2+ levels using FLIPR.
Compounds are prepared and subjected to a preincubation period of […]. Thereafter, a single EC20 concentration of acetylcholine is added to each well (3 nM final). The intracellular Ca^2+ level of each sample is measured and compared to an acetylcholine control to determine any modulatory activity.
Cells: CHOnfat/hM1, hM2, hM3 or hM4 cells are plated 24 hr before the assay at a density of 18,000 cells/well (100 μL) in a 384 well plate. CHOnfat/hM1 and CHOnfat/hM3 Growth Medium: 90% DMEM (Hi Glucose); 10% HI FBS; 2 mM L-glutamine; 0.1 mM NEAA; Pen-Strep; and 1 mg/ml Geneticin, are added. For M2Gqi5CHOnfat and M4Gqi5CHOnfat cells, an additional 600 ug/ml hygromycin is added.
Equipment: 384 well plate, 120 μl, addition plate; 96-well Whatman 2 ml Uniplate Incubator, 37° C., 5% CO2; Skatron EMBLA-384 Plate Washer; Multimek Pipetting System; Genesis Freedom 200 System; Mosquito System; Temo Nanolitre Pipetting System; and FLIPR^384 Fluorometric Imaging Plate Reader System are used.
Buffers. Assay Buffer: Hanks Balanced Salt Solution, with 20 mM Hepes, 2.5 mM Probenecid (Sigma P-8761) first dissolved in 1 N NaOH, 1% Bovine Serum Albumin (Sigma A-9647). Dye Loading Buffer: Assay Buffer plus 1% Fetal Bovine Serum and Fluo-4AM/Pluronic Acid Mixture. 2 mM Fluo-4AM ester stock in DMSO (Molecular Probes F-14202) Concentration of 2 μM in buffer for a final concentration of 1 μM in Assay. 20% Pluronic Acid Solution stock, with concentration of 0.04% in Buffer, 0.02% in Assay.
65 μL of 2 mM Fluo-4AM are mixed with 130 μL of 20% Pluronic Acid. The resulting solution and 650 μL FBS is added to the assay buffer for a total volume of 65 mL. Positive Controls: 4-Br-A23187: 10 mM in DMSO; final concentration 10 μM. Acetylcholine: 10 mM in water, working stock at both 20 μM and 30 μM in assay buffer, final concentration of 10 μM. This is used to check the maximum stimulation of the CHOK1/hM1 cells. 20 μM (2×) acetylcholine is added in the preincubation part of the assay, and the 30 μM (3×) stock is added in the second part. (EC20)Acetylcholine: 10 mM in water, working stock of 9 nM (3×), and final concentration in assay is 3 nM. This is used after the preincubation with test compounds. Addition of the EC20 Acetylcholine to each well with a test compound will ascertain any modulator activity. 24 wells contain 3 nM Acetylcholine alone as a control.
Determining Activity of Putative Compounds:
Screening Plate Compounds are titrated in 96-well plates (columns 2-11), 100% DMSO, started at a concentration of 15 mM (150× stock concentration), and 3-fold serial dilutions using Genesis Freedom200 System. Four 96-well plates are combined into a 384-well plate using Mosquito Nanolitre Pipetting System by transferring 1 μl of serial diluted compounds to each well, and 1 mM acetylcholine (100× stock concentration) were added as a control. Using Temo, 49 μl assay buffer is added to each well of the 384-well plate right before assay.
In a 96-well Whatman 2 ml Uniplate, 9 nM Acetylcholine (3×) is pipetted into wells corresponding to the screening compounds, and into control wells. The 30 μM acetylcholine control (3×) is added into control wells, and the 3× agonist plate is transferred into a 384 well plate.
Cells are washed three times with 100 μL of buffer, leaving […] of buffer in each well. Using Multimek, 30 μL of Dye Loading Buffer is added into each well and incubated at 37° C., 5% CO2 for up to one hr.
After 60 min, the cells are washed three times with 100 μL of buffer, leaving 30 μL of buffer in each well. The cell plate, screening plate, and agonist addition plates are placed on the platform in the FLIPR and the door closed. A signal test to check background fluorescence and basal fluorescence signal is performed. Laser intensity is adjusted if necessary.

[1] = Table 2, CHOnfat/hM1 cells, FLIPR, read-out: M1 Pot.
[2] = Table 1, CHOnfat/hM1 cells, FLIPR, read-out: M1 Pot.

| Compound | pEC50 [1] | pEC50 [2] | also measured |
| --- | --- | --- | --- |
| CC1c2c(cc(CN3CCN(c4cccnc4)CC3)c3cccnc23)C(=O)N1C1CCCCC1O (centres unmarked) [Example 163, 8-(2-hydroxycyclohexyl)-9-methyl-5-[(4-pyridin-3-ylpiperazin-1-yl)methyl]-8,9-dihydro-7H-pyrrolo[3,4-h]quinolin-7-one] | 6.28 | – | – |
| CC1c2c(cc(CN3CCN(c4ccccc4)CC3)c3cccnc23)C(=O)N1C1CCCCC1O (centres unmarked) [Example 175, 8-(2-hydroxycyclohexyl)-9-methyl-5-[(4-phenylpiperazin-1-yl)methyl]-8,9-dihydro-7H-pyrrolo[3,4-h]quinolin-7-one] | 6.31 | – | – |
| O=C1c2cc(CN3CCC(c4ccncc4)CC3)c3cccnc3c2CN1C1CCCCC1O (centres unmarked) [Example 142, 8-(2-hydroxycyclohexyl)-5-[(4-pyridin-4-ylpiperidin-1-yl)methyl]-8,9-dihydro-7H-pyrrolo[3,4-h]quinolin-7-one] | 7.29 | – | – |
| CC1c2c(cc(CN3CCC(c4ccncc4)CC3)c3cccnc23)C(=O)N1C1CCCCC1O (centres unmarked) [Example 161, 8-(2-hydroxycyclohexyl)-9-methyl-5-[(4-pyridin-4-ylpiperidin-1-yl)methyl]-8,9-dihydro-7H-pyrrolo[3,4-h]quinolin-7-one] | 6.19 | – | – |
| N#CC1(c2cccnn2)CCN(Cc2cc3c(c4ccccc24)CN([C@H]2CCCC[C@@H]2O)C3=O)CC1 [Example 52, 1-({2-[(1S,2S)-2-hydroxycyclohexyl]-3-oxo-2,3-dihydro-1H-benzo[e]isoindol-5-yl}methyl)-4-(pyridazin-3-yl)piperidine-4-carbonitrile] | – | 7.57 | – |
| N#CC1(c2ccccn2)CCN(Cc2cc3c(c4ccccc24)CN(c2ccccc2F)C3=O)CC1 [Example 62, 1-{[2-(2-fluorophenyl)-3-oxo-2,3-dihydro-1H-benzo[e]isoindol-5-yl]methyl}-4-pyridin-2-ylpiperidine-4-carbonitrile] | – | 6.19 | – |
| N#CC1(c2ccccn2)CCN(Cc2cc3c(c4ccccc24)CN([C@H]2CCCC[C@@H]2O)C3=O)CC1 [Example 1, 1-({2-[(1S,2S)-2-Hydroxycyclohexyl]-3-oxo-2,3-dihydro-1H-benzo[e]isoindol-5-yl}methyl)-4-(pyridine-2-yl)piperidine-4-carbonitrile] | – | – | pEC50 (Table 3, inflection point calculated from the FLIPR values, read-out: IP Value): 8.00 |
| COc1cccc(C2(C#N)CCN(Cc3cc4c(c5ncccc35)CN([C@H]3CCCC[C@@H]3O)C4=O)CC2)n1 [Example 154, 1-({8-[(1S,2S)-2-hydroxycyclohexyl]-7-oxo-8,9-dihydro-7H-pyrrolo[3,4-h]quinolin-5-yl}methyl)-4-(6-methoxypyridin-2-yl)piperidine-4-carbonitrile] | 7.72 | – | – |
| O=C1c2cc(CN3CCC(c4ccccc4)CC3)c3cccnc3c2CN1C1CCCCC1O (centres unmarked) [Example 139, 8-(2-hydroxycyclohexyl)-5-[(4-phenylpiperidin-1-yl)methyl]-8,9-dihydro-7H-pyrrolo[3,4-h]quinolin-7-one] | 7.07 | – | – |
| CC1c2c(cc(CN3CCN(c4ccccc4)CC3)c3cccnc23)C(=O)N1C1CCCCC1O (centres unmarked) [Example 176, 8-(2-hydroxycyclohexyl)-9-methyl-5-[(4-phenylpiperazin-1-yl)methyl]-8,9-dihydro-7H-pyrrolo[3,4-h]quinolin-7-one] | 7.03 | – | – |
| CC1c2c(cc(CN3CCC(F)(C#N)CC3)c3cccnc23)C(=O)N1C1CCCCC1O (single isomer, unassigned) [Example 118, 4-fluoro-1-{[8-(2-hydroxycyclohexyl)-9-methyl-7-oxo-8,9-dihydro-7H-pyrrolo[3,4-h]quinolin-5-yl]methyl}piperidine-4-carbonitrile] | 6.35 | – | – |
| CC1(O)CCN(Cc2cc3c(c4ncccc24)CN(C2CCCCC2O)C3=O)CC1 (centres unmarked) [Example 101, 8-(2-hydroxycyclohexyl)-5-[(4-hydroxy-4-methylpiperidin-1-yl)methyl]-8,9-dihydro-7H-pyrrolo[3,4-h]quinolin-7-one] | 6.03 | – | – |

The next lines start with results.

| pEC50 [1] | pEC50 [2] | Compound | also measured |
| --- | --- | --- | --- |
| – | 7.17 | O=C1c2cc(CN3CCN(c4ccc(F)cc4)CC3)c3ccccc3c2CN1[C@H]1CCCC[C@@H]1O [Example 67, 5-{[4-(4-fluorophenyl)piperazin-1-yl]methyl}-2-[(1S,2S)-2-hydroxycyclohexyl]-1,2-dihydro-3H-benzo[e]isoindol-3-one] | – |
| – | 7.14 | O=C1c2cc(CN3CCN(c4ccccc4)CC3)c3ccccc3c2CN1[C@H]1CCCC[C@@H]1O [Example 72, 2-[(1S,2S)-2-hydroxycyclohexyl]-5-[(4-phenylpiperazin-1-yl)methyl]-1,2-dihydro-3H-benzo[e]isoindol-3-one] | – |
| – | 6.62 | O=C1c2cc(CN3CCC(F)(F)C3)c3ccccc3c2CN1C1CCCCC1O (centres unmarked) [Example 33, 5-[(3,3-difluoropyrrolidin-1-yl)methyl]-2-(2-hydroxycyclohexyl)-1,2-dihydro-3H-benzo[e]isoindol-3-one] | – |
| – | 5.80 | Cn1cc(N2CCN(Cc3cc4c(c5ccccc35)CN(C3CCOCC3)C4=O)CC2)cn1 [Example 82, 5-{[4-(1-methyl-1H-pyrazol-4-yl)piperazin-1-yl]methyl}-2-(tetrahydro-2H-pyran-4-yl)-1,2-dihydro-3H-benzo[e]isoindol-3-one] | – |
| 7.38 | – | Cn1cc(N2CCN(Cc3cc4c(c5ncccc35)CN([C@H]3CCCC[C@@H]3O)C4=O)CC2)cn1 [Example 157, 8-[(1S,2S)-2-hydroxycyclohexyl]-5-{[4-(1-methyl-1H-pyrazol-4-yl)piperazin-1-yl]methyl}-8,9-dihydro-7H-pyrrolo[3,4-h]quinolin-7-one] | – |
| 7.55 | – | O=C1c2cc(CN3CCN(c4cccnc4)CC3)c3cccnc3c2CN1C1CCCCC1O (centres unmarked) [Example 162, 8-(2-hydroxycyclohexyl)-5-[(4-pyridin-3-ylpiperazin-1-yl)methyl]-8,9-dihydro-7H-pyrrolo[3,4-h]quinolin-7-one] | – |
| 6.82 | – | O=C1c2cc(CN3CCOCC3)c3cccnc3c2CN1C1CCCCC1O (centres unmarked) [Example 99, 8-(2-hydroxycyclohexyl)-5-(morpholin-4-ylmethyl)-8,9-dihydro-7H-pyrrolo[3,4-h]quinolin-7-one] | – |
| – | 5.85 | O=C1c2cc(CN3CCC(c4ccccc4)CC3)c3ccccc3c2CN1C1CCCCC1O (centres unmarked) [Example 41, 2-(2-hydroxycyclohexyl)-5-[(4-phenylpiperidin-1-yl)methyl]-1,2-dihydro-3H-benzo[e]isoindol-3-one] | – |
